Here are results for one compound from US9751919B2, “Antimicrobial compositions comprising a hyaluronic acid binding peptide and a β-lactam antibiotic” (priority 2012, dated 2017).

Each structure is given as a SMILES string. Like-named read-outs stand apart in the source and are kept apart here.

What all share (assay): MIC (CLSI broth dilution), agent alone
A general note: In broth dilution the organism is exposed to a series of concentrations in liquid medium.

In test [1] the test system is E. coli. The class given is cell-based, Escherichia coli. As for the experimental part: (§1) VISA (strains 92, 95 and 96), VRSA (strains 105 and 106) and E. coli (strain 69717) isolates were also tested. One MSSA was used as a control. All MICs were assessed using CLSI guidelines. Also assessed was the activity of cefazolin, ceftriazone, meropenem, and a piperacillin/tazobactam combination antibiotic. Minimum inhibitory concentration (MIC) is the lowest concentration of an antimicrobial that will inhibit the visible growth of a microorganism after incubation.
(§2) Antimicrobial Susceptibility Testing: A custom designed panel of antimicrobials was created. The panel included: PEP35, penicillin, piperacillin/tazobactam, cefazolin, ceftriaxone, meropenem, clarithromycin, clindamycin, gentamicin, amikacin, vancomycin, ciprofloxacin, levofloxacin, moxifloxacin, linezolid, trimethoprim/sulfamethoxazole and doxycycline. These agents were obtained as laboratory grade powders from their respective manufacturers. Stock solutions were prepared and dilutions made as described by the Clinical Laboratory Standards Institute (2005 CLSI). Following two subcultures from frozen stock the MICs of the antimicrobial agents for the isolates were determined by the CLSI 2005 approved broth macrodilution method. Briefly, test tubes containing doubling antibiotic dilutions (2 ml per tube) of cation adjusted Mueller-Hinton broth (eg. for Enterobacteriaceae) with or without lysed horse blood (2-5% V/V) [eg. for S. pneumoniae] were inoculated to achieve a final concentration of approximately 5×10^5 CFU/ml and incubated in ambient air for 24 hours prior to reading. Colony counts were performed periodically to confirm inocula. Quality control was performed every two weeks using a variety of ATCC QC organisms including; S. aureus 29213, E. faecalis 29212, E. coli 25922 and P. aeruginosa 27853. For all antimicrobials as well as PEP35, CLSI criteria were used.
(§3) One MS SA and ATCC reference strains were used as controls. All MICs were assessed using CLSI guidelines.

For test [2], the system named is CA-MRSA. Format: cell-based, Staphylococcus aureus. As to conditions: for MIC: Staphylococcus aureus. The method, then:
as §1
as §2, with “The panel included: PEP35, penicillin, piperacillin/tazobactam, cefazolin, ceftriaxone, meropenem, clarithromycin, clindamycin, gentamicin, amikacin, vancomycin, ciprofloxacin, levofloxacin, moxifloxacin, linezolid, trimethoprim/sulfamethoxazole and doxycycline.” left out, “27853.” for “27853. For all antimicrobials as well as PEP35, CLSI criteria were used.”
(§4) One MSSA was used as a control. All MICs were assessed using CLSI guidelines.
as §3

Test [3] deals with HA-MRSA. Format: cell-based, Staphylococcus aureus. As for the experimental part: as §1
as §2, with “The panel included: PEP35, penicillin, piperacillin/tazobactam, cefazolin, ceftriaxone, meropenem, clarithromycin, clindamycin, gentamicin, amikacin, vancomycin, ciprofloxacin, levofloxacin, moxifloxacin, linezolid, trimethoprim/sulfamethoxazole and doxycycline.” left out, “27853.” for “27853. For all antimicrobials as well as PEP35, CLSI criteria were used.”
as §4, §3

Test [4] relates to MSSA. Format: cell-based, Staphylococcus aureus. As to conditions: for MIC: S. aureus control, agent alone. The method, then:
as §1
as §2, with “The panel included: PEP35, penicillin, piperacillin/tazobactam, cefazolin, ceftriaxone, meropenem, clarithromycin, clindamycin, gentamicin, amikacin, vancomycin, ciprofloxacin, levofloxacin, moxifloxacin, linezolid, trimethoprim/sulfamethoxazole and doxycycline.” left out, “27853.” for “27853. For all antimicrobials as well as PEP35, CLSI criteria were used.”
as §4, §3

Regarding `CC1=C(C(=O)O)N2C(=O)[C@@H](NC(=O)[C@H](N)c3ccccc3)[C@H]2SC1` [Cephalexin], the “Cephalexin (MIC)” value is listed as 8/8 in test [1] (E. coli, antibiotic alone, two values in cell) and 4/4 in test [4] (S. aureus (control row), antibiotic alone, two values in cell). The MIC in test [1] (Escherichia coli, E. coli control, agent alone, read-out: MIC) was found to be 8 µg/mL; in test [2] (MRSA / USA300), 128 µg/mL; in test [2] (MRSA / USA400), 128 µg/mL; in test [2] (MRSA / USA400, CA-MRSA (CMRSA7/USA400/MW2) isolates, one per table line, agent alone, read-out: MIC) it was 512 µg/mL; in test [3] (Staphylococcus aureus, MRSA / USA200, read-out: Cephalexin (MIC), HA-MRSA (CMRSA4/USA200), antibiotic alone), 512 µg/mL; in test [4], 8 µg/mL. In test [4] (Staphylococcus aureus, MSSA, read-out: MIC), the MIC was 4 µg/mL. In addition, the “MICs alone, range” value was 64 to 512 µg/mL in test [2] (50 CA-MRSA strains) and 128 to 512 µg/mL in test [3] (50 HA-MRSA strains). Besides, the “strains resistant to the antibiotic” value in test [2] (50 CA-MRSA strains) and in test [3] (50 HA-MRSA strains) was 50 of the 50 strains throughout.
